Assay results taken from article PMC8395040 (International Journal of Molecular Sciences, 2021).
Where two headings read alike, the source gives them in different places.

Legend:
Daoy = assay: MTT cytotoxicity assay, Daoy; format: cell-based, human; conditions: 72 h; for IC50: 0.05–50 µM; for cytotoxicity at 50 µM: read-out: % Cytotoxicity (50 µM) DAOY;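 on all read-outs here: viability read as formazan absorbance at 570 nm after MTT reduction, three independent biological replicates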
HEK293 = assay: MTT cytotoxicity assay, HEK293 control cells; format: cell-based, human; conditions: MTT, 72 h, non-cancer cell line;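 further: Read-out is formazan absorbance at 570 nm from MTT reduction in 96-well plates, with three independent biological replicates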
HCT116 = assay: MTT cytotoxicity assay, HCT116; format: cell-based; conditions: Homo sapiens; for cytotoxicity at 50 µM: read-out: % Cytotoxicity (50 µM) HCT116; for IC50: 0.05–50 µM
Protocol: (§1) Cytotoxicity assays were performed by using the MTT reduction method as described previously. Briefly, cancer cell lines were plated in flat-bottom 96-well plates at a cell concentration of 5 × 10^3 cells/well for the fastest growing lines, such as HEK293 and HT29 cells and 1 × 10^4 cells/well for more slowly growing lines, such as HCT116, H1975, BxPC-3, AsPC-1, B16-F10 and DAOY. Then, cells were incubated with the synthesised compounds at different concentrations (from 0.05 to 50 µM) in 200 µL with 10% FBS in RPMI 1640 or DMEM F12 culture medium at 37 °C for 72 h. Later, 10 µL of MTT were added at a final concentration of 0.5 mg/mL, incubated at 37 °C for 4 h, and then solubilised with 10% sodium dodecyl sulphate (SDS) in 0.1 mM HCl and incubated overnight at 37 °C. Formazan formation was measured at 570 nm in a multiwell plate reader (Cytation 5, Biotek Instruments, Winooski, VT, USA). Three independent biological replicates were performed.

HT29 = assay: MTT cytotoxicity assay, HT29; format: cell-based; conditions: Homo sapiens; for cytotoxicity at 50 µM: read-out: % Cytotoxicity (50 µM) HT29; for IC50: 0.05–50 µM
Protocol: as §1

H1975 = assay: MTT cytotoxicity assay, H1975; format: cell-based; conditions: Homo sapiens; for cytotoxicity at 50 µM: read-out: % Cytotoxicity (50 µM) H1975; for IC50: 0.05–50 µM
Protocol: as §1

AsPC-1 = assay: MTT cytotoxicity assay, AsPC-1; format: cell-based; conditions: Homo sapiens, ASPC1, 72 h, 0.05–50 µM
Protocol: as §1

BxPC-3 = assay: MTT cytotoxicity assay, BxPC-3; format: cell-based; conditions: Homo sapiens, 72 h, 0.05–50 µM
Protocol: as §1

[1] = MTT cytotoxicity assay, HEK293 control cells; format: cell-based, human; conditions: human, HEK293 cells; 50 µM, 72 h, MTT;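 further: Read-out is formazan absorbance at 570 nm from MTT reduction in 96-well plates, with three independent biological replicates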

melting point | Compound | IC50 (Daoy; MTT) | IC50 (HEK293) | cytotoxicity at 50 µM (HCT116; HCT-116, 50 µM, 72 h, MTT) | IC50 (HCT116; HCT-116, MTT, 72 h) | cytotoxicity at 50 µM (HT29; HT-29, 50 µM, 72 h, MTT) | IC50 (HT29; HT-29, MTT, 72 h) | IC50 (Daoy; Homo sapiens, Daoy, MTT) | cytotoxicity at 50 µM (Daoy; Homo sapiens, Daoy, 50 µM, MTT) | cytotoxicity at 50 µM (H1975; NCI-H1975, 50 µM, 72 h, MTT) | IC50 (H1975; NCI-H1975, MTT, 72 h) | IC50 (AsPC-1) | IC50 (BxPC-3) | cytotoxicity at 72 h, 50 µM [1] | IC50 (HEK293; Homo sapiens, HEK293) | cytotoxicity at 50 µM (HCT116; HCT-116, 72 h) | cytotoxicity at 50 µM (HT29; HT-29, 72 h) | cytotoxicity at 50 µM (Daoy; Homo sapiens, Daoy) | cytotoxicity at 50 µM (H1975; NCI-H1975, 72 h)
– | N.N.[Cl][Pt][Cl] [Cisplatin, reference compound] | 12 ± 0.7 µM | 12 ± 1.4 µM | – | – | – | – | – | – | – | – | – | – | – | – | – | – | – | –
93 to 95 °C | CCCCn1cnc2c(-c3ccc(OC(F)(F)F)cc3)nc(NC3CCCC3)nc21 [Compound 4a, 9-Butyl-N-cyclopentyl-6-(4-(trifluoromethoxy)phenyl)-9H-purin-2-amine] | – | – | 68 ± 0.3% | 32 ± 0.3 µM | < 50% | > 50 µM | 18 ± 0.2 µM | 82 ± 6.2% | 66 ± 0.9% | 34 ± 0.9 µM | 20.1 ± 0.3 µM | > 50 µM | < 50% | > 50 µM | – | – | – | –
– | CCCCCn1cnc2c(-c3ccc(OC(F)(F)F)cc3)nc(NC3CCCC3)nc21 [Compound 4b, N-cyclopentyl-9-pentyl-6-(4-(trifluoromethoxy)phenyl)-9H-purin-2-amine] | – | – | – | 47 ± 0.9 µM | – | > 50 µM | > 50 µM | – | – | 30 ± 1 µM | 23.2 ± 0.2 µM | > 50 µM | < 50% | > 50 µM | 53 ± 0.9% | < 50% | 94 ± 0.4% | 30 ± 1%
– | CCCCn1cnc2c(-c3ccc(OC(F)(F)F)cc3)nc(NC3CCCCC3)nc21 [Compound 4d, 9-Butyl-N-cyclohexyl-6-(4-(trifluoromethoxy)phenyl)-9H-purin-2-amine] | – | – | < 50% | – | < 50% | – | – | < 50% | < 50% | – | – | – | < 50% | – | – | – | – | –
84 to 86 °C | CCCCCCn1cnc2c(-c3ccc(OC(F)(F)F)cc3)nc(NC3CCCCC3)nc21 [Compound 4f, N-cyclohexyl-9-hexyl-6-(4-(trifluoromethoxy)phenyl)-9H-purin-2-amine] | – | – | < 50% | – | < 50% | – | – | < 50% | < 50% | – | – | – | < 50% | – | – | – | – | –
88 to 89 °C | CCCCn1cnc2c(-c3ccc(OC(F)(F)F)cc3)nc(NCC3CCCCC3)nc21 [Compound 4g, 9-Butyl-N-(cyclohexylmethyl)-6-(4-(trifluoromethoxy)phenyl)-9H-purin-2-amine] | – | – | < 50% | – | < 50% | – | – | < 50% | < 50% | – | – | – | < 50% | – | – | – | – | –
– | CCCCCCn1cnc2c(-c3ccc(OC(F)(F)F)cc3)nc(NCC3CCCCC3)nc21 [Compound 4i, N-(cyclohexylmethyl)-9-hexyl-6-(4-(trifluoromethoxy)phenyl)-9H-purin-2-amine] | – | – | < 50% | – | < 50% | – | – | < 50% | < 50% | – | – | – | < 50% | – | – | – | – | –
– | CCCCCn1cnc2c(-c3ccc(OC(F)(F)F)cc3)nc(N3CCN(c4ccccc4)CC3)nc21 [Compound 4j, 9-Pentyl-2-(4-phenylpiperazin-1-yl)-6-(4-(trifluoromethoxy)phenyl)-9H-purine] | – | – | < 50% | – | < 50% | – | – | < 50% | < 50% | – | – | – | < 50% | – | – | – | – | –

Compound | melting point | IC50 (Daoy; MTT) | IC50 (HEK293) | cytotoxicity at 50 µM (HCT116; HCT-116, 50 µM, 72 h, MTT) | IC50 (HCT116; HCT-116, MTT, 72 h) | cytotoxicity at 50 µM (HT29; HT-29, 50 µM, 72 h, MTT) | IC50 (HT29; HT-29, MTT, 72 h) | IC50 (Daoy; Homo sapiens, Daoy, MTT) | cytotoxicity at 50 µM (Daoy; Homo sapiens, Daoy, 50 µM, MTT) | cytotoxicity at 50 µM (H1975; NCI-H1975, 50 µM, 72 h, MTT) | IC50 (H1975; NCI-H1975, MTT, 72 h) | IC50 (AsPC-1) | IC50 (BxPC-3) | cytotoxicity at 72 h, 50 µM [1] | IC50 (HEK293; Homo sapiens, HEK293) | cytotoxicity at 50 µM (HCT116; HCT-116, 72 h) | cytotoxicity at 50 µM (HT29; HT-29, 72 h) | cytotoxicity at 50 µM (Daoy; Homo sapiens, Daoy) | cytotoxicity at 50 µM (H1975; NCI-H1975, 72 h)
CCCCCCn1cnc2c(-c3ccc(OC(F)(F)F)cc3)nc(NC3CCCC3)nc21 [Compound 4c, N-cyclopentyl-9-hexyl-6-(4-(trifluoromethoxy)phenyl)-9H-purin-2-amine] | 58 to 60 °C | – | – | – | > 50 µM | – | > 50 µM | 31 ± 0.9 µM | – | – | 19 ± 0.8 µM | > 50 µM | > 50 µM | < 50% | > 50 µM | < 50% | < 50% | 69 ± 0.9% | 19 ± 0.8%
